| melting point [°C] | SMILES |
| --- | --- |
| 121 | Cc1ccc(-c2c(Cl)nc3ncnn3c2NC(C)C)c(F)c1 |
| 105 to 106 | CC(C)(C)c1cc(-c2nn(CC(F)(F)C(F)F)c3ncccc23)cc(C(C)(C)C)c1O |
| 244 to 246 | COc1cc2ccc(-c3ccccc3[N+](=O)[O-])cc2cc1OC |
| 162 to 164 | CCCSc1nc(C)nc(S)c1[N+](=O)[O-] |
| 110 to 112 | COC(=O)c1cccc(-c2cc(CCN3CCCC3=O)c3cc(OC)ccc3c2)c1 |
| 222 to 223 | CN(C)c1c(C(N)=O)cnc2c(NC(=O)c3c(Cl)cccc3Cl)cccc12 |
| 166 to 168 | COc1ccc2cc3c(N)nn(CCN4CCOCC4)c3nc2c1 |
| 210 to 211 | Cc1nc(C(O)C2CCc3c(C)c4ccccc4n3C2=O)c[nH]1 (configuration not stated) |
| 202 to 205 | COc1ccc(C)cc1NC(=O)Nc1ccc(C2CCN(C(=O)Nc3cc(OCCO)ccc3Cl)CC2)cc1 |
| 93 to 94 | COC(=O)c1ccc(CCC(=O)/C=C/c2ccc(O)c(OC)c2)o1 |
| 250 to 252 | CCOC(=O)c1cn(CC)c2nc(OC)c(N)cc2c1=O |
| 117 to 120 | COc1ccc(C2=NN(Cc3cccnc3)C(=O)[C@H]3CC=CC[C@@H]23)cc1OC (relative stereo) |
| 275 to 277 | COc1cc(OC)c2c(=O)[nH]c(-c3ccc(CN4CCN(C)CC4)cc3)nc2c1 |
| 137 to 142 | Nc1cc(F)c(F)cc1S(N)(=O)=O |
| > 200 | N#Cc1c(N2CCc3ccccc3CC2)nc(N)n(N)c1=O |
| 237 | CCOC(=O)c1nc2scc(NC(=O)Cc3ccccc3)c2c(=O)[nH]1 |
| 101 to 102 | CC(=O)NCc1ccc2c(Cl)cn(C3CCN(CCc4ccc(F)cc4)CC3)c2c1 |
| 57 to 61 | COc1cc(/C=C/CCO)ccc1OCc1ccccc1 |
| 248 to 250 | NS(=O)(=O)c1cc2ncc(O)cc2s1 |
| 160 | CCCCc1nc2cc(C)c(C)cc2n1Cc1ccc(C#N)cc1 |
| 144 to 148 | Cc1ccc(S(=O)(=O)c2ccc3c(c2)c(CCNC(=O)OC(C)(C)C)cn3C)cc1 |
| 281 | Cc1cc(-c2ccc(Cl)cc2)nc(-n2cnc(-c3ccc(S(N)(=O)=O)s3)c2)n1 |
| 231 to 233 | COc1ccc2c(c1)c(Cc1cc(=O)n(-c3cnc4ccccc4n3)[nH]1)c(C)n2C(=O)c1ccc(Cl)cc1 |
| 161 | CCOc1ccc2c(c1)n(C1CCCCC1)c(=O)n2S(=O)(=O)c1ccc(C(=O)NC(C)(C)CN(C)C)cc1OC |
| 60 | COc1ccc(-c2c(C)c3cc(OC)ccc3n2CCCCCCBr)cc1 |

The remaining lines, values behind:

| SMILES | melting point [°C] |
| --- | --- |
| CC12C=CC(O)CC1=CCC1C2CCC2(C)C1CCC21OCCO1 (configuration not stated) | 138 to 140 |
| CC(C)c1ccc(-n2ncc(C(=O)NC34CC5CC(CC(C5)C3)C4)c2OCCN2CCOCC2)cc1 | 132 to 134 |
| CN1CC(CO)CC2(OCCCO)c3cccc4[nH]cc(c34)CC12 (configuration not stated) | 189 to 195 |
| C[Si](C)(C)O[C@@H]1C(=O)N[C@@H]1c1ccccc1 (relative stereo) | 118 to 120 |
| O=c1[nH]c2ccc(CCN3CCN(c4cccc5c4CCCC5)CC3)cc2o1 | 200 |
| c1ccc2c(c1)CCn1ccnc1C2=C1CCNCC1 | 287 to 289 |
| Nc1cc([N+](=O)[O-])ccc1OC(F)(F)F | 90 to 91 |
| CC[C@H]1CNC[C@H]1NC(=O)OC(C)(C)C | 63.5 to 65.5 |
| CCC(=O)N[C@@H](C)C(=O)N1CCC[C@H]1C(=O)NC1CCCC1 | 172 to 173 |
| COc1ccc(C2SCCS2)cc1 | 62 to 63 |
| C1CNCCCNCCCNCCCNC1 | 84 to 86 |
| O=C1NCCN1CCN1CCC(c2cn(-c3ccc(F)cc3)c3ccc(O)cc23)CC1 | 220 |
| O=C(CCCCC1CCN(Cc2ccccc2)CC1)c1ccc(N2CCCC2)cc1 | 129 to 131 |
| N#Cc1ccc(-c2cn(-c3ccc(I)cc3)c(SCc3ccccn3)n2)cc1 | 180 to 184 |
| O=C1NC(=O)C(Cc2ccc(OCCON=Cc3ccccn3)cc2)S1 (configuration not stated) | 161 to 163 |
| O=C(N[C@@H](Cc1ccc(OCc2ccccc2)cc1)C(=O)O)c1cn2cc(/C=C/c3ccccc3)ccc2n1 | 262 to 263 |
| Nc1ccc(OCc2ccccc2)cc1N | 184 |
| S=C(NC1CCCc2sccc21)C1CCNCC1 (configuration not stated) | 102 |
| Cc1nccnc1OCC1COC(C)(C)O1 (configuration not stated) | 77 to 78 |
| CS(=O)c1nnc(-c2ccc3occ(-c4ccc(OC(F)(F)F)cc4)c3c2)o1 (configuration not stated) | 134 to 135 |
| COc1ccc(SCCCCNC(P(=O)(O)O)P(=O)(O)O)cc1 | 188 to 189 |
| N#Cc1cccc(-c2nc(Nc3cnccn3)sc2-n2cncn2)c1 | > 250 |
| O=S(Cc1ccccc1)c1ccccc1 (configuration not stated) | 123 to 126 |
| O=C(C1CCCCC1)N(CCN1CCN(c2cccc3cccnc23)CC1)c1ccccc1OC(F)(F)F | 142 to 143 |

| SMILES | melting point [°C] |
| --- | --- |
| O=C(OCc1ccccc1)C(C(=O)N1CC2C(=O)CCC(c3ccccc3)(c3ccccc3)C2C1)c1ccccc1 (racemic) | 210 |
| CCCCCCCCCCCCCCCCCCOC(=O)C(N)Cc1ccc(O)cc1 (configuration not stated) | 80 to 83 |
| C/C(=C\c1ccc(OCCN2CCOCC2)cc1)c1ccc2c(c1)C(C)(C)CCC2(C)C | 107 to 109 |
| CCC(NS(=O)(=O)c1ccc(Cl)cc1)c1ccccc1 (configuration not stated) | 140 to 142 |
| COC(=O)CSc1nc(Nc2ccc(N3CCOCC3)cc2)ncc1[N+](=O)[O-] | 188 to 190 |
| COc1ccc(-c2snnc2SC)cc1 | 60.5 to 61 |
| S=c1nc2ccc(Br)cn2c(=S)n1-c1ccc(Br)cn1 | 77 |
| N#Cc1ccc2c(c1)S(=O)(=O)c1ccc(F)cc1C2=O | 260 |
| CN(C)S(=O)(=O)c1ccc2c(c1)C(=O)c1cc(Br)ccc1CC2 | 142 to 145 |
| CCOCCOc1c(C2CCN(CCCCNC(=O)c3ccc(-c4ccc(C(F)(F)F)cc4)cc3)CC2)ccc2c1CCCC2 | 190 |
| O=C1c2[nH]c3cc(Cl)ccc3c2Oc2ccccc2N1Cc1ccccc1 | 259 to 261 |
| CCCCc1oc2ccccc2c1C(=O)NCc1ccc2c(-c3ccc(Cl)cc3)c(O)ccc2c1 | 122 to 124 |
| O=C(O)Cc1ccc(OCc2ccc3ccccc3n2)c(-n2cccc2)c1 | 173 |
| COc1ccc(S(=O)(=O)N2CCc3cccc(-c4ccc(N(C)C)cc4)c32)cc1 | 178 to 180 |
| CCc1n[nH]c(CC)c1CCCCCCOc1ccc(Cl)cc1 | 130 to 132 |
| c1cc(-c2n[nH]c3c2Cc2cc(CN4CCOCC4)ccc2-3)cs1 | 196 to 198 |
| Cc1noc(NS(=O)(=O)c2cccc3nsnc23)c1Br | 177 to 179 |
| Fc1ccccc1N1CCN(c2ccc(Cl)nn2)CC1 | 148 |
| O=C1C(c2ccccc2)c2cccc3c2N1CCN3 (configuration not stated) | 168 to 171 |
| CN(C)CCC1(c2ccccc2)CCc2ccccc2C1=O (configuration not stated) | 71 to 72 |
| O=C(c1ccc([N+](=O)[O-])cc1)c1ccc2[nH]c(=O)sc2c1 | 148 to 152 |
| CC(S)C(=O)NCCS (configuration not stated) | 53 |
| C=C(C)c1ccc(C(C)(c2ccc(C(=C)C)cc2)c2ccc(C(=C)C)cc2)cc1 | 28 |

From a melting point compilation (Tetko et al.; mined from patent text by program, amines drawn as free bases though some values may be those of a salt)
